In paper PMC4950264 (Molecular Ecology, 2016):
pIC50: −log10 of the molar value.

Target: T1, CYP6Z1 (Anopheles funestus, UniProt Z9NKG6IF05)
T1 sequence (Z9NKG6IF05 1-492): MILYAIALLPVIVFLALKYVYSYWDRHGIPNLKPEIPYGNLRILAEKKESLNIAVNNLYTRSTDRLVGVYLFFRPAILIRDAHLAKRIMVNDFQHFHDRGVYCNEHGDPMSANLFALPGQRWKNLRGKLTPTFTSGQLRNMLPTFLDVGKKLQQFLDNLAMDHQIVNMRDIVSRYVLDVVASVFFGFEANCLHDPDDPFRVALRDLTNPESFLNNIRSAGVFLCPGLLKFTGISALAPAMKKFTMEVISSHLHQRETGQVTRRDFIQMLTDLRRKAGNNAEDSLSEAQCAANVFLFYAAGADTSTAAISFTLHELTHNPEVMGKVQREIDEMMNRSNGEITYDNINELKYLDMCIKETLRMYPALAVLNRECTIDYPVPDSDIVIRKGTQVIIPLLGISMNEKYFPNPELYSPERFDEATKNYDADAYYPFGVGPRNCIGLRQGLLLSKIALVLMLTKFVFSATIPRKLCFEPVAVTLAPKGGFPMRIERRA

| Compound | pIC50 |
| --- | --- |
| Clc1ccc(C(c2ccc(Cl)cc2)C(Cl)(Cl)Cl)cc1 [DDT] | 5.05 |
| CNC(=O)Oc1cccc2c1OC(C)(C)O2 [bendiocarb] | 5.02 |
